The results in this text go back to patent US20250134863A1, “MEDICAL AGENT FOR TREATING OR SUPPRESSING PROGRESSION OF AMYOTROPHIC LATERAL SCLEROSIS” (MITSUBISHI TANABE PHARMA CORPORATION, priority 2022, published 2025).

The subject of this experiment is ALS patients. Briefly: Post-hoc statistical analysis 2: uric acid levels from baseline to cycle 12 (16, 17 and 19 trials). In kind it is in vivo, human. The text has this:
After a 12-week observation period, patients whose ALSFRS-R total score decreased by 1 to 4 points during that period were considered eligible for the trial. In the 16 trial, eligible patients were randomly divided into an edaravone treatment group and a placebo administration group, and patients in each group received administration for 24 weeks (cycles 1 to 6). After completing the 24-week double-blind portion of the 16 trial, patients who received edaravone (E) were randomly assigned to the 17 trial, and during a 24-week double-blind extension period (cycles 7 to 12), edaravone treatment (EE group) or placebo administration (EP group) was performed. On the other hand, all patients from the placebo (P) administration group received edaravone treatment (PE group). All patients received open-label edaravone treatment for the next 12 weeks (cycles 13 to 15).
Edaravone was administered at a dose of 60 mg by intravenous infusion over 60 minutes, once daily. The infusion was given for 14 days in the first treatment cycle, and for 10 days out of the 14-day treatment period in all subsequent cycles. A 14-day drug holiday period was provided after each treatment cycle.
Similar to the 16 trial, after a 12-week observation period, patients in the 19 trial were randomly divided into an edaravone treatment group and a placebo administration group, and patients in each group received administration for 24 weeks (cycles 1 to 6). In the 19 trial, after the double-blind treatment period, all patients received open-label edaravone treatment for an additional 24 weeks (cycles 7 to 12). Therefore, the 19 trial included an EE group and a PE group.
The blood uric acid levels in the 16 trial, 17 trial, and 19 trial were measured values obtained using the uricase-peroxidase method.
In order to characterize the uric acid level and ALSFRS-R total score profiles at cycle 12, efficacy was analyzed in randomized ALS patients at the start of cycle 7 and randomized ALS patients who received the medical agent at least once after the start of cycle 7.
Descriptive statistics (number of subjects, mean, standard deviation, minimum, maximum) were used to summarize the changes in uric acid levels (mg/dL) and ALSFRS-R total scores from baseline to cycle 12 for the entire population and for the Edaravone treatment group as a subgroup defined by the median baseline uric acid level (4.8 mg/dL). The median baseline uric acid level for all patients (4.8 mg/dL) was derived using the entire edaravone population, including the EE, PE, and EP groups in the 16 trial, the 17 trial, and the 19 trial.

Setting [1] is: Subgroup with uric acid level baseline <4.8 mg/dL, EE group.
Where [2] appears, read: Subgroup with uric acid level baseline <4.8 mg/dL, EP group.
Where [3] appears, read: Subgroup with uric acid level baseline <4.8 mg/dL, PE group.
[4] abbreviates: Subgroup with uric acid level baseline ≥4.8 mg/dL, EE group.
The mark [5] stands for this setting: Subgroup with uric acid level baseline ≥4.8 mg/dL, EP group.
Setting [6] is: Subgroup with uric acid level baseline ≥4.8 mg/dL, PE group.

`CC1=NN(c2ccccc2)C(=O)C1` [edaravone, 3-methyl-1-phenyl-2-pyrazolin-5-one]: the “Uric acid level change from BL to cycle 12, Mean (SD)” value (shortened to “Uric acid level change from BL … (SD)”) is -0.25 mg/dL (Overall, EE group); −0.25 (0.86) mg/dL (Overall, EE group, listed as Edaravone); -0.22 mg/dL (Overall, EP group); −0.22 (0.77) mg/dL (Overall, EP group, listed as Edaravone); -0.37 mg/dL (Overall, PE group); −0.37 (0.86) mg/dL (Overall, PE group, listed as Edaravone). Besides, the “Uric acid level change from BL … (SD)” value under setting [1] is −0.10 (0.69) mg/dL; the “Uric acid level change from BL … (SD)” value under setting [2] was 0.15 (0.64) mg/dL; the “Uric acid level change from BL … (SD)” value under setting [3] was 0.00 (0.71) mg/dL; the “Uric acid level change from BL … (SD)” value under setting [4] was -0.4 mg/dL; the “Uric acid level change from BL … (SD)” value (Subgroup with uric acid level baseline ≥4.8 mg/dL, EE group, listed as Edaravone) was −0.41 (1.01) mg/dL; the “Uric acid level change from BL … (SD)” value under setting [5] was -0.48 mg/dL. Besides, the “Uric acid level change from BL … (SD)” value by setting is: (Subgroup with uric acid level baseline ≥4.8 mg/dL, EP group, listed as Edaravone) −0.48 (0.77) mg/dL; under setting [6], -0.68 mg/dL; (Subgroup with uric acid level baseline ≥4.8 mg/dL, PE group, listed as Edaravone) −0.68 (0.86) mg/dL. In addition, the “Uric acid level at Cycle 12, Mean (SD)” value is, setting by setting: (Overall, Edaravone-Edaravone (EE) group) 4.4 (1.36) mg/dL; (Overall, Edaravone-Placebo (EP) group) 4.9 (1.20) mg/dL; (Overall, Placebo-Edaravone (PE) group) 4.5 (1.32) mg/dL; under setting [1], 3.6 (0.85) mg/dL; under setting [2], 4.1 (0.93) mg/dL; under setting [3], 3.6 (0.95) mg/dL. Also, the “Uric acid level at Cycle 12, Mean (SD)” value was 5.4 (1.21) mg/dL under setting [4], 5.5 (1.04) mg/dL under setting [5] and 5.2 (1.17) mg/dL under setting [6].
